Reference: patent US5147876A, “2,6-di,2,4,6-, 2,5,6-tri and 2,4,5,6-tetra-substituted pyrimidines, their pharmaceutically acceptable salts, pharmaceutical compositions containing same and their use in the treatment of neurological diseases” (Mitsui Petrochemical Industries, Ltd., priority 1988, dated 1992)

Tests used:
[1] = test system: neuro-2a (mouse neuroblastoma cells); assay: Action on neuro-2a: proportion of cells containing outgrown neurites; type: cell-based; conditions: mean ± S.D.
Procedure, shortened: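 Mouse neuro-2a cells at 1,000 cells/well in DMEM with 10% FCS were cultured one day at 37 °C, 5% CO2, then glutaraldehyde-fixed and methylene-blue-stained. The proportion of cells bearing a neurite at least twice the cell's long diameter was counted over >200 cells; up to 6 concentrations, triplicate runs.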

[2] = test system: NS-20Y (mouse neuroblastoma cells); assay: Activity on NS-20Y cells: appearance of neurites; type: cell-based
Experimental: The effects of the compounds of this invention on neuroblastoma cells were examined by the following method.
Mouse neuro 2a cells in the logarithmic growth period in the Dulbecco's modified Eagle's medium DMEM, containing 100 units/ml of penicillin G sodium and 100 micrograms/ml of streptomycin sulfate]containing 10 % of FCS were seeded in a 48-well plate so that the number of cells was 1,000 cells/well, and cultured for one day in 0.25 ml of the culture fluid in each well in an incubator containing 5 % of carbon dioxide gas in air at 37° C. Then, a 4 % aqueous glutaraldehyde solution in the same amount as a medium (0.25 ml) was added, and the culture fluid was left to stand at room temperature for 2 hours to fix the cells. After washing with water, a 0.05 % aqueous solution of methylene blue was added to stain the cells Under a microscope, the number of cells containing outgrown neurites (cells having at least one neurite with a length of at least two times as large as the long diameter of the cell) was counted visually, and the proportion of these cells in the entire cells was calculated. The well was observed over 5 or more visual fields (at least 2 % of the entire surface area of the well) continuous to the left and right from a mark put at the center of the well, and more than 200 cells was counted. One drug compound was used in 6 different concentrations at most, and three runs were conducted for each concentrations.
Mouse neuroblastoma cells NS-20Y were similarly cultured in a dish coated with polyornithine, and the effects of the compounds were examined.

Acute toxicity on mice = type: in vivo; conditions: mouse, in vivo, ip, 24 hours after administration; read-out: Estimated LD50
Experimental: The acute toxicity of the compounds of the invention was examined by the following method.
Male ddy-strain 5-week old mice, 4-6- per group, were used as experimental animals. Each of the compounds was intraperitoneally (i.p.), and the toxicity of the compound was assessed 24 hours after the administration.

CN(C(=O)C1CCCCC1)c1ccnc(N2CCC(c3ccccc3)CC2)n1 [Compound 232]
Number of cells having neurites with a length at least two times the diameter of each cell/total number of cells ([1]; 0.03 mM): 3.9 ± 1.8% | Number of cells having neurites with a length at least two times the diameter of each cell/total number of cells ([1]; 0.1 mM): 18.7 ± 5.2% | Number of cells in which neurites appeared/total number of cells ([2]; 24 hours, 0.025 mM): 2/50 | Number of cells in which neurites appeared/total number of cells ([2]; 48 hours, 0.01 mM): 2/49 | LD50 at 24 h (Acute toxicity on mice): > 1000 mg/kg

CN(C(=O)c1ccc(Cl)cc1)c1ccnc(N2CCC(c3ccccc3)CC2)n1 [Compound 240]
Number of cells having neurites with a length at least two times the diameter of each cell/total number of cells ([1]; 0.03 mM): 19.8 ± 5.7% | Number of cells having neurites with a length at least two times the diameter of each cell/total number of cells ([1]; 0.1 mM): 38.7 ± 4.5% | Number of cells having neurites with a length at least two times the diameter of each cell/total number of cells ([1]; 0.3 mM): 33.2 ± 0.9% | Number of cells having neurites with a length at least two times the diameter of each cell/total number of cells ([1]; 1 mM): 30.9 ± 5.9% | Number of cells in which neurites appeared/total number of cells ([2]; 24 hours, 0.2 mM): 4/50 | Number of cells in which neurites appeared/total number of cells ([2]; 48 hours, 0.2 mM): 3/50 | LD50 at 24 h (Acute toxicity on mice): > 1000 mg/kg

CN(C(=O)c1ccc([N+](=O)[O-])cc1)c1ccnc(N2CCC(c3ccccc3)CC2)n1 [Compound 264]
Number of cells having neurites with a length at least two times the diameter of each cell/total number of cells ([1]; 0.1 mM): 5.2 ± 3.1% | Number of cells having neurites with a length at least two times the diameter of each cell/total number of cells ([1]; 0.3 mM): 8.7 ± 1.6% | Number of cells having neurites with a length at least two times the diameter of each cell/total number of cells ([1]; 1 mM): 15.2 ± 3.2% | Number of cells having neurites with a length at least two times the diameter of each cell/total number of cells ([1]; 3 mM): 7.2 ± 1.8% | Number of cells in which neurites appeared/total number of cells ([2]; 24 hours, 0.4 mM): 8/48 | Number of cells in which neurites appeared/total number of cells ([2]; 48 hours, 0.4 mM): 4/50 | LD50 at 24 h (Acute toxicity on mice): 500 to 1000 mg/kg

COc1ccc(C(=O)N(C)c2ccnc(N3CCC(c4ccccc4)CC3)n2)cc1 [Compound 272]
Number of cells having neurites with a length at least two times the diameter of each cell/total number of cells ([1]; 0.03 mM): 4.8 ± 1.3% | Number of cells having neurites with a length at least two times the diameter of each cell/total number of cells ([1]; 0.1 mM): 30.9 ± 2.8% | Number of cells having neurites with a length at least two times the diameter of each cell/total number of cells ([1]; 0.3 mM): 15.9 ± 0.5% | Number of cells having neurites with a length at least two times the diameter of each cell/total number of cells ([1]; 1 mM): 17.0 ± 4.3% | Number of cells in which neurites appeared/total number of cells ([2]; 24 hours, 0.1 mM): 33/50 | Number of cells in which neurites appeared/total number of cells ([2]; 24 hours, 0.2 mM): 24/50 | Number of cells in which neurites appeared/total number of cells ([2]; 48 hours, 0.1 mM): 17/50 | LD50 at 24 h (Acute toxicity on mice): > 1000 mg/kg

COc1cc(C(=O)N(C)c2ccnc(N3CCC(c4ccccc4)CC3)n2)cc(OC)c1OC [Compound 280]
Number of cells having neurites with a length at least two times the diameter of each cell/total number of cells ([1]; 0.03 mM): 4.5 ± 1.2% | Number of cells having neurites with a length at least two times the diameter of each cell/total number of cells ([1]; 0.1 mM): 17.2 ± 1.3% | Number of cells having neurites with a length at least two times the diameter of each cell/total number of cells ([1]; 0.3 mM): 13.4 ± 3.5% | Number of cells having neurites with a length at least two times the diameter of each cell/total number of cells ([1]; 1 mM): 17.4 ± 2.6% | Number of cells in which neurites appeared/total number of cells ([2]; 24 hours, 0.2 mM): 3/50 | Number of cells in which neurites appeared/total number of cells ([2]; 48 hours, 0.1 mM): 8/53 | LD50 at 24 h (Acute toxicity on mice): 500 to 1000 mg/kg

CN(C(=O)c1ccc(-c2ccccc2)cc1)c1ccnc(N2CCC(c3ccccc3)CC2)n1 [Compound 288]
Number of cells having neurites with a length at least two times the diameter of each cell/total number of cells ([1]; 0.03 mM): 1.4 ± 0.1% | Number of cells having neurites with a length at least two times the diameter of each cell/total number of cells ([1]; 0.1 mM): 3.3 ± 0.9% | Number of cells having neurites with a length at least two times the diameter of each cell/total number of cells ([1]; 0.3 mM): 3.8 ± 1.9% | Number of cells having neurites with a length at least two times the diameter of each cell/total number of cells ([1]; 1 mM): 5.1 ± 2.7% | Number of cells in which neurites appeared/total number of cells ([2]; 24 hours, 0.1 mM): 2/52 | Number of cells in which neurites appeared/total number of cells ([2]; 48 hours, 0.1 mM): 2/50 | LD50 at 24 h (Acute toxicity on mice): 500 to 1000 mg/kg

CN(C(=O)c1ccccc1)c1ccnc(N2CCC(Cc3ccccc3)CC2)n1 [Compound 304]
Number of cells having neurites with a length at least two times the diameter of each cell/total number of cells ([1]; 0.1 mM): 38.1 ± 1.6% | Number of cells having neurites with a length at least two times the diameter of each cell/total number of cells ([1]; 0.3 mM): 15.3 ± 6.3% | Number of cells in which neurites appeared/total number of cells ([2]; 24 hours, 0.1 mM): 40/50 | Number of cells in which neurites appeared/total number of cells ([2]; 48 hours, 0.01 mM): 3/50 | LD50 at 24 h (Acute toxicity on mice): > 1000 mg/kg

CC(=O)N(C)c1ccnc(N2CCCc3ccccc32)n1 [Compound 320]
Number of cells having neurites with a length at least two times the diameter of each cell/total number of cells ([1]; 0.1 mM): 7.2 ± 0.2% | Number of cells having neurites with a length at least two times the diameter of each cell/total number of cells ([1]; 0.3 mM): 8.5 ± 1.1% | Number of cells in which neurites appeared/total number of cells ([2]; 24 hours, 0.1 mM): 8/50 | Number of cells in which neurites appeared/total number of cells ([2]; 48 hours, 0.1 mM): 6/50 | LD50 at 24 h (Acute toxicity on mice): > 1000 mg/kg

CN(C(=O)c1ccccc1)c1ccnc(N2CCCc3ccccc32)n1 [Compound 328]
Number of cells having neurites with a length at least two times the diameter of each cell/total number of cells ([1]; 0.01 mM): 6.6 ± 0.5% | Number of cells having neurites with a length at least two times the diameter of each cell/total number of cells ([1]; 0.03 mM): 10.2 ± 8.2% | Number of cells having neurites with a length at least two times the diameter of each cell/total number of cells ([1]; 0.1 mM): 28.0 ± 6.8% | Number of cells having neurites with a length at least two times the diameter of each cell/total number of cells ([1]; 0.3 mM): 10.6 ± 3.4% | Number of cells in which neurites appeared/total number of cells ([2]; 24 hours, 0.1 mM): 32/50 | Number of cells in which neurites appeared/total number of cells ([2]; 48 hours, 0.025 mM): 8/50 | Number of cells in which neurites appeared/total number of cells ([2]; 48 hours, 0.1 mM): 12/51 | LD50 at 24 h (Acute toxicity on mice): > 1000 mg/kg

CN(C(=O)c1ccccc1)c1ccnc(N2CCN(c3ccccc3)CC2)n1 [Compound 360]
Number of cells having neurites with a length at least two times the diameter of each cell/total number of cells ([1]; 0.03 mM): 6.5 ± 0.7% | Number of cells having neurites with a length at least two times the diameter of each cell/total number of cells ([1]; 0.1 mM): 10.0 ± 0.7% | Number of cells in which neurites appeared/total number of cells ([2]; 24 hours, 0.02 mM): 8/50 | Number of cells in which neurites appeared/total number of cells ([2]; 24 hours, 0.1 mM): 18/50 | Number of cells in which neurites appeared/total number of cells ([2]; 48 hours, 0.1 mM): 4/50 | LD50 at 24 h (Acute toxicity on mice): > 1000 mg/kg

CN(C(=O)c1ccccc1)c1ccnc(N2CCN(Cc3ccccc3)CC2)n1 [Compound 368]
Number of cells having neurites with a length at least two times the diameter of each cell/total number of cells ([1]; 0.03 mM): 3.5 ± 0.5% | Number of cells having neurites with a length at least two times the diameter of each cell/total number of cells ([1]; 0.1 mM): 9.0 ± 1.8% | Number of cells in which neurites appeared/total number of cells ([2]; 24 hours, 0.1 mM): 14/50 | Number of cells in which neurites appeared/total number of cells ([2]; 48 hours, 0.05 mM): 8/51 | Number of cells in which neurites appeared/total number of cells ([2]; 48 hours, 0.1 mM): 5/50 | LD50 at 24 h (Acute toxicity on mice): 500 to 1000 mg/kg

CN(C(=O)c1ccccc1)c1ccnc(N2CCN(C(c3ccccc3)c3ccc(Cl)cc3)CC2)n1 (stereo not drawn) [Compound 376]
Number of cells having neurites with a length at least two times the diameter of each cell/total number of cells ([1]; 0.03 mM): 13.6 ± 1.2% | Number of cells having neurites with a length at least two times the diameter of each cell/total number of cells ([1]; 0.1 mM): 14.7 ± 1.5% | Number of cells having neurites with a length at least two times the diameter of each cell/total number of cells ([1]; 0.3 mM): 17.2 ± 1.4% | Number of cells having neurites with a length at least two times the diameter of each cell/total number of cells ([1]; 1 mM): 16.4 ± 3.0% | Number of cells in which neurites appeared/total number of cells ([2]; 24 hours, 0.2 mM): 2/50 | Number of cells in which neurites appeared/total number of cells ([2]; 48 hours, 0.1 mM): 2/50 | LD50 at 24 h (Acute toxicity on mice): 500 to 1000 mg/kg

CC(=O)N(C)c1cc(C)nc(N2CCC(c3ccccc3)CC2)n1 [Compound 392]
Number of cells having neurites with a length at least two times the diameter of each cell/total number of cells ([1]; 0.1 mM): 14.6 ± 6.0% | Number of cells having neurites with a length at least two times the diameter of each cell/total number of cells ([1]; 0.3 mM): 30.9 ± 5.7% | Number of cells having neurites with a length at least two times the diameter of each cell/total number of cells ([1]; 1 mM): 23.8 ± 4.2% | Number of cells having neurites with a length at least two times the diameter of each cell/total number of cells ([1]; 3 mM): 11.1 ± 9.7% | Number of cells in which neurites appeared/total number of cells ([2]; 24 hours, 0.1 mM): 8/50 | Number of cells in which neurites appeared/total number of cells ([2]; 48 hours, 0.05 mM): 6/51 | Number of cells in which neurites appeared/total number of cells ([2]; 48 hours, 0.1 mM): 3/43 | LD50 at 24 h (Acute toxicity on mice): 500 to 1000 mg/kg

Cc1cc(N(C)C(=O)c2ccccc2)nc(N2CCC(c3ccccc3)CC2)n1 [Compound 400]
Number of cells having neurites with a length at least two times the diameter of each cell/total number of cells ([1]; 0.3 mM): 11.4 ± 4.3% | Number of cells having neurites with a length at least two times the diameter of each cell/total number of cells ([1]; 1 mM): 16.0 ± 2.7% | Number of cells in which neurites appeared/total number of cells ([2]; 24 hours, 0.1 mM): 9/50 | Number of cells in which neurites appeared/total number of cells ([2]; 24 hours, 0.4 mM): 30/53 | Number of cells in which neurites appeared/total number of cells ([2]; 48 hours, 0.1 mM): 3/50 | Number of cells in which neurites appeared/total number of cells ([2]; 48 hours, 0.4 mM): 3/48 | LD50 at 24 h (Acute toxicity on mice): 500 to 1000 mg/kg
